From the NIST ThermoML archive (doi:10.1021/je100821g)
± gives the expanded uncertainty stated by the source.

What was measured:
[1] = xn = mol fraction of the nth substance listed; conditions: 293.15 K, 101 kPa, Liquid; for viscosity: Concentric cylinders viscometry
[2] = excess molar enthalpy (molar enthalpy of mixing); xn = mol fraction of the nth substance listed; conditions: 303 K, 101 kPa, Liquid, Calvet calorimetry
[3] = Liquid; for viscosity / mass density: 101.33 kPa; for viscosity: Concentric cylinders viscometry; for mass density: Vibrating tube method

**Q.** Which viscosity ([1]; x2 = 0) does the source give for `COC(C)(C)C` [2-methoxy-2-methylpropane] + ClC(Cl)Cl here?
**A.** 0.333 ± 0.005 mPa·s

**Q.** What about the mass density ([1]; x2 = 0) of the same compound?
**A.** 739.9 ± 0.4 kg/m3

**Q.** And the excess molar enthalpy ([2]; x2 = 0)?
**A.** 0 ± 0.000239 kcal/mol

**Q.** Which results are given for `ClC(Cl)Cl` [trichloromethane] + COC(C)(C)C?
**A.** viscosity ([1]; x1 = 0.0527): 0.358 ± 0.005 mPa·s; viscosity ([1]; x1 = 0.0834): 0.372 ± 0.005 mPa·s; viscosity ([1]; x1 = 0.1841): 0.423 ± 0.005 mPa·s; viscosity ([1]; x1 = 0.2714): 0.47 ± 0.006 mPa·s; viscosity ([1]; x1 = 0.358): 0.514 ± 0.006 mPa·s; viscosity ([1]; x1 = 0.4511): 0.56 ± 0.006 mPa·s; viscosity ([1]; x1 = 0.546): 0.595 ± 0.006 mPa·s; viscosity ([1]; x1 = 0.6303): 0.612 ± 0.007 mPa·s; viscosity ([1]; x1 = 0.724): 0.62 ± 0.007 mPa·s; viscosity ([1]; x1 = 0.8108): 0.618 ± 0.007 mPa·s; viscosity ([1]; x1 = 0.8948): 0.613 ± 0.006 mPa·s; viscosity ([1]; x1 = 0.9515): 0.609 ± 0.006 mPa·s; viscosity ([1]; x1 = 1): 0.6 ± 0.006 mPa·s; mass density ([1]; x1 = 0.0527): 768.1 ± 0.4 kg/m3; mass density ([1]; x1 = 0.0834): 785.4 ± 0.4 kg/m3; mass density ([1]; x1 = 0.1841): 842.6 ± 0.4 kg/m3; mass density ([1]; x1 = 0.2714): 895.6 ± 0.3 kg/m3; mass density ([1]; x1 = 0.358): 951.5 ± 0.3 kg/m3; mass density ([1]; x1 = 0.4511): 1015 ± 0.3 kg/m3; mass density ([1]; x1 = 0.546): 1083.8 ± 0.3 kg/m3; mass density ([1]; x1 = 0.6303): 1148.9 ± 0.4 kg/m3; mass density ([1]; x1 = 0.724): 1225.9 ± 0.4 kg/m3; mass density ([1]; x1 = 0.8108): 1302.9 ± 0.5 kg/m3; mass density ([1]; x1 = 0.8948): 1381.1 ± 0.6 kg/m3; mass density ([1]; x1 = 0.9515): 1437.9 ± 0.7 kg/m3; mass density ([1]; x1 = 1): 1488.4 ± 0.7 kg/m3; excess molar enthalpy ([2]; x1 = 0.038): -0.0817 ± 0.00813 kcal/mol; excess molar enthalpy ([2]; x1 = 0.068): -0.159 ± 0.0136 kcal/mol; excess molar enthalpy ([2]; x1 = 0.097): -0.22 ± 0.0213 kcal/mol; excess molar enthalpy ([2]; x1 = 0.101): -0.244 ± 0.0229 kcal/mol; excess molar enthalpy ([2]; x1 = 0.118): -0.263 ± 0.0213 kcal/mol; excess molar enthalpy ([2]; x1 = 0.154): -0.287 ± 0.0232 kcal/mol; excess molar enthalpy ([2]; x1 = 0.172): -0.311 ± 0.0239 kcal/mol; excess molar enthalpy ([2]; x1 = 0.219): -0.382 ± 0.0311 kcal/mol; excess molar enthalpy ([2]; x1 = 0.251): -0.454 ± 0.0359 kcal/mol; excess molar enthalpy ([2]; x1 = 0.39): -0.502 ± 0.0406 kcal/mol; excess molar enthalpy ([2]; x1 = 0.516): -0.502 ± 0.0406 kcal/mol; excess molar enthalpy ([2]; x1 = 0.669): -0.43 ± 0.0335 kcal/mol; excess molar enthalpy ([2]; x1 = 0.78): -0.359 ± 0.0287 kcal/mol; excess molar enthalpy ([2]; x1 = 0.864): -0.191 ± 0.0158 kcal/mol; excess molar enthalpy ([2]; x1 = 0.899): -0.155 ± 0.0127 kcal/mol; excess molar enthalpy ([2]; x1 = 0.931): -0.115 ± 0.0098 kcal/mol; excess molar enthalpy ([2]; x1 = 0.958): -0.0669 ± 0.00621 kcal/mol; excess molar enthalpy ([2]; x1 = 0.986): -0.0359 ± 0.0043 kcal/mol; excess molar enthalpy ([2]; x1 = 1): 0 ± 0.000239 kcal/mol

**Q.** With `ClC(Cl)Cl` [trichloromethane] as the compound, how does the viscosity ([3]; 273.15 K) read?
**A.** 0.713 mPa·s

**Q.** And the mass density ([3]; 273.15 K)?
**A.** 1526 ± 0.3 kg/m3

**Q.** What about the viscosity ([3]; 283.15 K) of the same compound?
**A.** 0.651 mPa·s

**Q.** And the mass density ([3]; 283.15 K)?
**A.** 1507.1 ± 0.3 kg/m3

**Q.** What about the viscosity ([3]; 293.15 K) of the same compound?
**A.** 0.6 mPa·s

**Q.** What about the mass density ([3]; 293.15 K) of the same compound?
**A.** 1488.4 ± 0.3 kg/m3

**Q.** And the viscosity ([3]; 298.15 K)?
**A.** 0.576 mPa·s

**Q.** And the mass density ([3]; 298.15 K)?
**A.** 1478.8 ± 0.3 kg/m3

**Q.** And the viscosity ([3]; 303.15 K)?
**A.** 0.552 mPa·s

**Q.** What about the mass density ([3]; 303.15 K) of the same compound?
**A.** 1469.2 ± 0.3 kg/m3

**Q.** What about the “vapor or sublimation pressure” value ([3]; 303.15 K) of the same compound?
**A.** 32.2 ± 0.36 kPa

**Q.** What about the viscosity ([3]; 313.15 K) of the same compound?
**A.** 0.509 mPa·s

**Q.** What about the mass density ([3]; 313.15 K) of the same compound?
**A.** 1450 ± 0.3 kg/m3

**Q.** What about the viscosity ([3]; 318.15 K) of the same compound?
**A.** 0.491 mPa·s

**Q.** And the mass density ([3]; 318.15 K)?
**A.** 1440 ± 0.3 kg/m3

**Q.** Which viscosity ([3]; 273.15 K) does the source give for `COC(C)(C)C` [2-methoxy-2-methylpropane] here?
**A.** 0.39 ± 0.005 mPa·s

**Q.** And the mass density ([3]; 273.15 K)?
**A.** 760.4 ± 0.3 kg/m3

**Q.** And the viscosity ([3]; 283.15 K)?
**A.** 0.36 ± 0.005 mPa·s

**Q.** What about the mass density ([3]; 283.15 K) of the same compound?
**A.** 750.1 ± 0.3 kg/m3

**Q.** And the “vapor or sublimation pressure” value ([3]; 286.5 K)?
**A.** 20 ± 0.2 kPa

**Q.** What about the “vapor or sublimation pressure” value ([3]; 291.3 K) of the same compound?
**A.** 25 ± 0.21 kPa

**Q.** What about the viscosity ([3]; 293.15 K) of the same compound?
**A.** 0.333 ± 0.005 mPa·s

**Q.** And the mass density ([3]; 293.15 K)?
**A.** 739.9 ± 0.3 kg/m3

**Q.** And the “vapor or sublimation pressure” value ([3]; 295.5 K)?
**A.** 30 ± 0.22 kPa

**Q.** And the viscosity ([3]; 298.15 K)?
**A.** 0.319 ± 0.005 mPa·s

**Q.** And the mass density ([3]; 298.15 K)?
**A.** 734.4 ± 0.3 kg/m3

**Q.** And the “vapor or sublimation pressure” value ([3]; 299.2 K)?
**A.** 35 ± 0.23 kPa

**Q.** What about the “vapor or sublimation pressure” value ([3]; 302.5 K) of the same compound?
**A.** 40 ± 0.19 kPa

**Q.** What about the viscosity ([3]; 303.15 K) of the same compound?
**A.** 0.304 ± 0.005 mPa·s

**Q.** And the mass density ([3]; 303.15 K)?
**A.** 729.2 ± 0.3 kg/m3

**Q.** And the “vapor or sublimation pressure” value ([3]; 303.15 K)?
**A.** 41 ± 0.44 kPa

**Q.** What about the “vapor or sublimation pressure” value ([3]; 305.45 K) of the same compound?
**A.** 45 ± 0.28 kPa

**Q.** What about the “vapor or sublimation pressure” value ([3]; 308.2 K) of the same compound?
**A.** 50 ± 0.27 kPa

**Q.** And the “vapor or sublimation pressure” value ([3]; 310.8 K)?
**A.** 55 ± 0.29 kPa

**Q.** And the “vapor or sublimation pressure” value ([3]; 313.1 K)?
**A.** 60 ± 0.31 kPa

**Q.** And the viscosity ([3]; 313.15 K)?
**A.** 0.278 ± 0.005 mPa·s

**Q.** And the mass density ([3]; 313.15 K)?
**A.** 718.5 ± 0.3 kg/m3

**Q.** And the “vapor or sublimation pressure” value ([3]; 315.3 K)?
**A.** 65 ± 0.32 kPa

**Q.** What about the “vapor or sublimation pressure” value ([3]; 317.4 K) of the same compound?
**A.** 70 ± 0.33 kPa

**Q.** What about the “vapor or sublimation pressure” value ([3]; 319.3 K) of the same compound?
**A.** 75 ± 0.35 kPa

**Q.** What about the “vapor or sublimation pressure” value ([3]; 321.1 K) of the same compound?
**A.** 80 ± 0.36 kPa

**Q.** What about the “vapor or sublimation pressure” value ([3]; 322.9 K) of the same compound?
**A.** 85 ± 0.38 kPa

**Q.** What about the “vapor or sublimation pressure” value ([3]; 324.5 K) of the same compound?
**A.** 90 ± 0.39 kPa

**Q.** And the “vapor or sublimation pressure” value ([3]; 325.4 K)?
**A.** 92.5 ± 0.38 kPa

**Q.** And the “vapor or sublimation pressure” value ([3]; 326.2 K)?
**A.** 95 ± 0.4 kPa

**Q.** What about the “vapor or sublimation pressure” value ([3]; 326.9 K) of the same compound?
**A.** 97.2 ± 0.4 kPa
